The record followed here is patent US20110076332A1, “Dextran-chitosan based in-situ gelling hydrogels for biomedical applications” (priority 2009, published 2011).

This assay deals with Staphylococcus aureus (S. aureus). The experiment in a line: Bacterial attachment and biofilm formation on hydrogels in 96-well plates, MTS assay. The settings on record: whether or not a hydrogel was present. Type of assay: cell-based. On the procedure: Determination of bacteriostatic action against S. Aureus bacteria: Staphylococcus aureus (S. aureus) was used to study the resistance of selected dextran-chitosan hydrogels of the present invention to bacterial attachment and biofilm formation. Six different types of gels, having different chitosan-to-dextran ratios, proteins and bactericidal drugs, with six replicates each, were prepared in 96-well plates under sterile conditions. FIG. 18 is a bar chart showing the relative extent of bacterial growth, as estimated by MTS assay, for the various cases studied.
The chitosan and dextran solutions used in this study were prepared as described above. With reference to the labels used in FIG. 17, hydrogels were prepared with chitosan-dextran ratios of 1:1 (“1:1”), 2:1 (“2:1”) and 3:1 (“3:1”). Wells with chitosan sheets alone (“CS”), empty wells (“10̂8”), wells with vancomycin alone (“10̂8+VMC”) and wells with PBS alone (“PBS”) were used as controls. Additional hydrogels having chitosan-dextran ratios of 2:1 were prepared with fibronectin (“2:1+FN”), vancomycin (“2:1+VMC”) or both (“2:1+FN+VMC”) were also studied to understand the effect of drug loading and release on bacterial colony formation.
For the study, triplicate plates of each combination were seeded with S. aureus at a concentration of 1.0×10^8 bacteria/ml. The bacteria were allowed to attach and grow overnight (16 hours). […]

The structures appear in SMILES notation.

On to `CN[C@H](CC(C)C)C(=O)N[C@H]1C(=O)N[C@@H](CC(N)=O)C(=O)N[C@H]2C(=O)N[C@H]3C(=O)N[C@H](C(=O)N[C@H](C(=O)O)c4cc(O)cc(O)c4-c4cc3ccc4O)[C@H](O)c3ccc(c(Cl)c3)Oc3cc2cc(c3O[C@@H]2O[C@H](CO)[C@@H](O)[C@H](O)[C@H]2O[C@H]2C[C@](C)(N)[C@H](O)[C@H](C)O2)Oc2ccc(cc2Cl)[C@H]1O` [vancomycin], for which the bacterial colony formation result is “reduced bacterial colony formation”.
